Results published in patent US20230346743A1, “COMBINATION CANCER THERAPIES” (The Board of Regents of the University of Oklahoma, priority 2018, published 2023).

Legend:
[1] = system: p21; assay: Western blots of p21 in ovarian cancer cell lines; type: cell-based, human; conditions: A2780, SKOV3, SKOV3 R273H, SKOV3 R248W
Procedure: Proteins were extracted from cell cultures using M-PER mammalian protein extraction reagent (ThermoFisher, Waltham, MA, USA) and volumes corresponding to 30 µg determined with BCA reagent (ThermoFisher, Waltham, MA, USA) were electrophoresed into a SDS-PAGE gel and transferred to PVDF membranes. Membranes were blocked (5% dry skim milk powder in TBST buffer) for at least 1 h or overnight, washed thrice with TBST and then incubated with primary antibody: p53 DO-1, β-actin, histone H3, GAPDH (Santa Cruz Biotechnology, Dallas, TX, USA) and mortalin, Tom20, V5 tag antibodies, p21, PARP, SLC7A11, caspase 3 (Cell Signaling Technology, Danvers, MA, USA) for at least 1 h or overnight. After three washes, membranes were incubated with anti-mouse HRP conjugated (Santa Cruz Biotechnology, Dallas, TX, USA) or anti-Rabbit HRP conjugated (Cell Signaling Technology, Danvers, MA, USA) for 40 min. Membranes then were washed and developed with ECL reagents (BioRad, Hercules, CA, USA). Bands were imaged and quantified (ChemiDoc imaging system with Image Lab Software/BioRad).

[2] = system: SiHa cervical cancer cell line xenograft; assay: SiHa xenograft tumor growth; type: in vivo, mice; conditions: gavage 60 mg/kg SHetA2, 100 mg/kg palbociclib or the combination every other day
Excerpt: FIG. 49. […] Controls were gavaged with the same Kolliphor HS15 used to suspend the drugs. Using a generalized estimating equations (GEE) model to analyze tumor growth treated as a continuous variable, there was a significant additive effect of SHetA2 (p<0.001) and palbociclib (p<0.001) on day 65 of treatment. This additive effect between SHetA2 (p=0.001) and palbociclib (p=0.051) was trending significant at day 63 of treatment. Additionally, SHetA2 starts to show significant tumor suppressing activity as early as day 63 of treatment (p=0.045).

[3] = system: TP21 gene; assay: qRT-PCR of TP21 in SKOV3 cells; type: cell-based, human; conditions: SKOV3 parental (p53 null) and R273H m-p53 cells; SHetA2 10 µM, PRIMA-1 20 µM, 16 h
[4] = system: FTSECs; assay: MTT cytotoxicity assay and Chou-Talalay drug interaction; type: cell-based, human; conditions: hFTSECs
Procedure: (§1) Cells plated at 2000 cells/well in 96 well microtiter plates were incubated for 36-48 h and treated with a range of doses and combinations of SHetA2 and PRIMA-1 or PRIMA-1^MET, or the same volume of DMSO solvent for 72 h of incubation. The percentage of growth for single drug treatments or fold effect (1 - ratio of treated/untreated growth) was measured using the CellTiter 96 AQueous Non-Radioactive Cell Proliferation Assay (Promega, Madison, WI, USA) and the BioTeK SYNERGY H1 (BioTeK, Winooski, VT, USA). Each experiment was performed in triplicate and repeated 2-3 times.
(§2) The potencies (IC50′s) of SHetA2 or PRIMA-1 were determined using GraphPad Prism 6 software analysis of average MTT Optical Density vs drug dose. […] Single drug treatments at doses surrounding the IC50 values were evaluated parallel. All treatments were performed in triplicate and averages used to draw isobolograms and calculate combination indices (CI) and dose-reduction indices (DRIs) using CompuSyn Software according to the Chou and Talalay method (op cit). All experiments were repeated at least twice for each cell line to confirm results.

[5] = system: A2780 (WT p53); assay: as above; type: cell-based, human
Procedure: as §1, §2

[6] = Toxicity in the MESOV mouse model (body weight, ascites, kidney and liver histology); type: in vivo; conditions: mouse, in vivo, ip
Procedure: Four-week-old female athymic nude mice (NCr-Foxn1^nu) were obtained from Taconic Biosciences under an approved Institutional Animal Care and Use Committee (IACUC) protocol. Mice were acclimatized for two weeks, fed with a standard diet and ear tagged during the acclimatization period. The timing to tumor development after intraperitoneal injection with various amounts of MESOV cells was determined in a pilot study prior. In the intervention experiment, 6-week-old mice were injected with 20 million MESOV human ovarian cancer cells in their intraperitoneal region. Drug treatment was initiated 4 weeks after the injection of cancer cells. Mice were randomized to four treatment groups before the start of treatment based on their body weight. There was no significant (one-way ANOVA, p >0.999) difference in body weight between groups at the start of treatment. Twelve mice were allocated to each group based on the power analysis performed while designing experiment. The sample size was determined to provide over 80% power to detect a 915 mm^3 difference in tumor volume between PRIMA-1^MET treatment alone and the drug combination treatment using a two-sided 0.05 level t-test. SHetA2 was administered by gavage at 60 mg/kg in 30% Kolliphor HS15 (Sigma). Controls were gavaged with Kolliphor HS15 (30% in water). PRIMA-1^MET (10 mg/kg) was dissolved in phosphate buffered saline and injected into the peritoneum of mice every other day. Initially SHetA2 dosing was administered every day for two weeks in SHetA2 alone and drug combination groups, and then switched to every other day for the next three weeks due to the stress caused to the mice by daily gavage. Oral gavaging was performed with sterile disposable plastic feeding tubes 20 ga × 38 mm (Instech Laboratories, Inc., Plymouth Meeting, PA, USA). Three mice in the drug combination group died after two weeks of drug treatment due to gavaging incidents. Body weights were recorded and animal health was monitored weekly. After the end of drug intervention period, all mice were euthanized by CO2 asphyxiation followed by exsanguination, their tumors and other vital organs were collected for further analysis. After measuring the total tumor weight, a portion of the tumors were snap frozen in liquid nitrogen and another portion was formalin fixed. The formalin fixed tissue samples were paraffin embedded, sectioned and stained with hematoxylin and eosins for histology studies. An experienced pathologist reviewed blinded histology slides for kidney and liver toxicity.

[7] = system: NCI 60-cell line panel; conditions: cited from earlier work

For `CC1(C)CC(C)(C)c2cc(NC(=S)Nc3ccc([N+](=O)[O-])cc3)ccc2S1` [SHetA2], the “p21 protein (Western blot)” value [1] was “increased p21 protein in all cell lines evaluated regardless of p53 status”, the “SiHa xenograft tumor growth” value [2] was “significantly reduce SiHa cervical cancer cell line xenograft tumor growth” and the “TP21 transcription (qRT-PCR)” value [3] was “induced TP21 transcription”. The “SHetA2 sensitivity compared with ovarian cancer cell lines” value [4] was “least sensitive”, the IC50 ([5]; A2780 cells with shRNA knockdown of p53, MTT) was 4.8 µM and the IC50 ([5]; A2780 cells without p53 knockdown (empty vector), MTT) was 2.8 µM. For the same compound, the “Effects on body weight or ascites (abdominal size)” value [6] was “no significant effects on body weight or ascites”, the “Kidney or liver toxicity (H & E histology)” value [6] was “did not cause kidney or liver toxicity” and the “Activity against cancer cell lines” value [7] was “active against all cancers present in the NCI 60-cell line panel”.
